Legend:
[1] = system: Pseudomonas aeruginosa, JCM 5961; assay: growth curve of Pseudomonas by optical density measuring method, liquid culture (½ TS medium); assay type: cell-based
Method: 100 mg of a sucrose monolaurate (Ryoto Sugar Ester L1695 produced by Mitsubishi-Kagaku Foods Corporation) was dissolved in 1 liter of a sterilized deionized water, the resultant solution was heated to 50° C., 50 mg of monolaurin (Taiyo Kagaku Co., Ltd.) was added thereinto followed by stirring, the dissolution thereof was then confirmed, and the resultant solution was subsequently cooled down to a room temperature. Added into the solution was 50 mg of an ε-polylysine product (50% dextrin powder produced by Chisso Corporation; containing 50% of ε-polylysine bromate and 50% of dextrin), followed by dissolution thereof, to obtain an antimicrobial aqueous solution. This antimicrobial aqueous solution contained 25 μg/ml of the ε-polylysine, 50 μg/ml of the monolaurin, and 100 μg/ml of the sucrose monolaurate. Here, used as the monolaurin was that recrystallized by means of hexane, because a monolaurin of high purity was required. […]

[2] = acute toxicity; cited from earlier work
Pseudomonas = assay: successive 2-fold dilution in test tubes, visual observation of growth of bacteria; assay type: cell-based; parameters: key to growth of bacteria, Dilution rate 0 / growth of bacteria, Dilution rate ×2 / growth of bacteria, Dilution rate ×4: visually observing a growth of bacteria, and the observation result is shown by marks of + and −; visually observing a growth of bacteria, and the observation result is shown by marks of + and −
Method: Further, successive 2-fold dilutions […] media of ½ concentration; 5 ml of the applicable diluted solution at each fold was separately poured into dual test tubes, for preparation; while simultaneously preparing diluted solutions of ε-polylysine only in test tubes as a comparative test, in the same manner as the above; and one droplet of an inoculum of Pseudomonas was inoculated into each diluted solution, followed by shaking and culturing at 37° C. for 18 hours. Judgment of each activity was conducted by visually observing a growth of bacteria, and the observation result is shown by marks of + and −.

bacteria and fungi = assay: growth of bacteria and fungi with diluted ε-polylysine by itself; assay type: cell-based; details: ε-polylysine by itself diluted down to about 6.25 μg/ml
[3] = 37° C. for 18 hours, start: ε-polylysine only 50 μg/ml, or ε-polylysine 8 μg/ml (fix) + diglycerol monolaurate 50 μg/ml

## ε-polylysine
[1]; 10 μg/ml of each component named in the sample code, compared with control without additive
  growth of bacteria (growth curve, FIG. 2): growth of bacteria to the similar level as a control
[1]; sample codes give μg/ml (M monolaurin, PL ε-polylysine, S sucrose monolaurate)
  lapse of time after which growth of bacteria set in (growth curve, FIG. 1): 12 h
[2]
  LD50: > 10000 mg/kg
Pseudomonas; [3]
  growth of bacteria, Dilution rate 0: −
  growth of bacteria, Dilution rate ×2: −
  growth of bacteria, Dilution rate ×4: −
Pseudomonas; ε-polylysine only, start 50 μg/ml, successive 2-fold dilution
  dilutions in which growth of bacteria was found: ≥ 8 fold
Bacteria and fungi
  effect on growth of bacteria and fungi: promote growth of bacteria and fungi
